Assay [1] has as its target T1, PEX (hemopexin domain of MMP-2) (Homo sapiens, UniProt P08253).
T1 sequence (P08253 446-660): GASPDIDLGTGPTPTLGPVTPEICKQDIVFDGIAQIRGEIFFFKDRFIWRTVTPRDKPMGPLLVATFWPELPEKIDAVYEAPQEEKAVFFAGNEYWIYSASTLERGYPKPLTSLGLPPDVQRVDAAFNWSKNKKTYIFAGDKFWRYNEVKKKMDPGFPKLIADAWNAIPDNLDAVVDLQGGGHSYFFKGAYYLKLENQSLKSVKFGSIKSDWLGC
Description: Surface plasmon resonance, PEX over immobilized peptide. Type of assay: binding. The note with it: PEX 0.3–10 μM over immobilized peptide, SPR. (In general: Surface plasmon resonance follows binding to a sensor surface in real time, without labels.)

The subject of assay [2] is collagen binding domain of MMP-2 (CBD). Description: Surface plasmon resonance, CBD over immobilized peptide. Also noted: species or system human. The note with it: CBD 10 μM over immobilized peptide, SPR.
Assay [3] relates to proMMP-2 activation by HT1080 cell membranes. Description: Activation of purified proMMP-2 by isolated HT1080 cell membranes. In kind it is biochemical, human. Conditions: peptide 3.7–100 μM, 16 h at 22 °C, pH 7.4; repeated at least 3 times.
In assay [4] the test system is proMMP-2 activation in HT1080 fibrosarcoma cells. The experiment in a line: Cell surface activation of proMMP-2 in Con A stimulated HT1080 cell culture. Type of assay: cell-based, human. Conditions: Con A 20 μg/ml, 0 nM C-TIMP-2.
Assay [5] concerns the target recombinant human MMP-2^E404A (human) (UniProt P08253). The experiment in a line: ELISA. On the technique in general: ELISA stands for enzyme-linked immunosorbent assay.
Assay [6] concerns the target recombinant full-length TIMP-2 (human (plasmid pGWIGH/htimp-2)) (UniProt P16035). The experiment in a line: ELISA.
The subject of another assay is proMMP-2 activation. Conditions: ref Strongin et al., 1995; cited from earlier work.
The target of assay [7] is recombinant full-length TIMP-2 (human (plasmid pGWIGH/htimp-2), UniProt P16035 27-220). Description: ELISA.

Here are results for six molecules from article PMC3191288 (Matrix biology : journal of the International Society for …, 2011).

Where only a bound is given, the exact number is not on record here.

Sequence of recombinant full-length TIMP-2 (P16035 27-220): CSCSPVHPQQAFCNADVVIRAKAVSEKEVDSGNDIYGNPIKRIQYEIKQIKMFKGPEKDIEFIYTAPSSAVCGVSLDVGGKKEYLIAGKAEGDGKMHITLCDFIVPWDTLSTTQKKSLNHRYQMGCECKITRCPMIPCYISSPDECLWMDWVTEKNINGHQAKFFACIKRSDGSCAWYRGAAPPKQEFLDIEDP
Sequence of recombinant full-length TIMP-2 (human (plasmid pGWIGH/htimp-2)) (P16035 27-220): as above

For CAWYRGAAPPK [P175S], the “binding of PEX to peptide” value in assay [1] is given as “consistently very weak”. In addition, the “binding of CBD to peptide” value in assay [2] is recorded as “did not bind”. In addition, in assay [3], the “inhibition of proMMP-2 activation by peptide” value is reported as “did not have any inhibitory effect on the cell membrane- mediated activation of proMMP-2”.
Take concanavalin A [Con A]: in assay [4], the “activated MMP-2 band intensity” value is 34,199 RDU, the “non-activated MMP-2 band intensity” value is 3,439 RDU and the “proMMP-2 activated by Con A” value was more than 90%.
As a reminder, the IC50 is the concentration needed to halve the response being measured. As usually defined, the Kd is the constant that tells how readily two partners part at equilibrium. As for “recombinant carboxyl-terminal domain of TIMP-2 (C-TIMP-2) (from UniProt P16035 154-220) (domain or fragment)”, in assay [5], the IC50 was determined as 5 µM and the Kd amounted to 0.39 µM.
In general, EC50 refers to the concentration giving half of the maximal effect. For “recombinant human MMP-2^E404A (from UniProt P08253 30-660) (enzyme)”, the EC50 in assay [6] came to 0.05 µM.
Regarding “tissue inhibitor of matrix metalloproteinase 2 [TIMP-2]”, the “concentration at which full-length TIMP-2 inhibited activation of proMMP-2” value in the assay on proMMP-2 activation is on record as “greater than 285 nM”.

B1: hemopexin-like domain of MMP-2 (PEX) (domain or fragment, human, UniProt P08253 446-660, looked up)
chain: T1 sequence (P08253 446-660)
modifications: biotinylated (sites not given) in the assays on coated TIMP-2; unlabeled when coated and in SPR
Regarding B1, in assay [7], the EC50 is 0.15 µM.
